The values below are quoted from earlier work in patent US7723036B2, “Assessing response to anti-CD20 therapy by genotyping C1q components” (The University of Iowa Research Foundation, priority 2005, dated 2010).

The conditions of series [1]: in vivo.
The conditions of series [2]: oral radioactive lomustine 30 mg/m^2 to 100 mg/m^2; within 24 hours.
The conditions of series [3]: in vivo. This is another data set of the same source.

Structures can show the parent of a compound that is named as a salt.

With `O=C(O)CCCc1ccc(N(CCCl)CCCl)cc1` [Chlorambucil, 4-(bis(2-chlorethyl)amino) benzenebutanoic acid], the “oral absorption (in words)” value in series [1] is “rapidly and completely absorbed”.

`N.N.[Cl][Pt][Cl]` [Cisplatin]: the “oral absorption (in words)” value in series [1] was “not absorbed orally”.

Turning to `COc1cccc2c1C(=O)c1c(O)c3c(c(O)c1C2=O)C[C@@](O)(C(C)=O)C[C@@H]3O[C@H]1C[C@H](N)[C@H](O)[C@H](C)O1` [Daunorubicin, 5,12-Naphthacenedione, (8S-cis)-8-acetyl-10-((3-amino-2,3,6-trideoxy-a-L-lyxo-hexanopyranosyl)oxy)-7,8,9,10-tetrahydro-6,8,11-trihydroxy-10-methoxy-, hydrochloride], in series [1], the “oral absorption (in words)” value was “poor”.

As for `COc1cccc2c1C(=O)c1c(O)c3c(c(O)c1C2=O)C[C@@](O)(C(=O)CO)C[C@@H]3O[C@H]1C[C@H](N)[C@H](O)[C@H](C)O1` [Doxorubicin, 5,12-Naphthacenedione, (8s-cis)-10-((3-amino-2,3,6-trideoxy-a-L-lyxo-hexopyranosyl)oxy)-7,8,9,10-tetrahydro-6,8,11-trihydroxy-8-(hydroxyacetyl)-1-methoxy-hydrochloride], the “oral absorption (in words)” value in series [1] is reported as “absorbed poorly”.

Turning to `O=NN(CCCl)C(=O)NC1CCCCC1` [Lomustine, 1-(2-chloro-ethyl)-3-cyclohexyl-1 nitrosourea], in series [2], the “radioactivity given excreted in the form of degradation products” value was “about half”.

For `CC[C@]1(O)C[C@@H]2CN(CCc3c([nH]c4ccccc34)[C@@](C(=O)OC)(c3cc4c(cc3OC)N(C)[C@H]3[C@@](O)(C(=O)OC)[C@H](OC(C)=O)[C@]5(CC)C=CCN6CC[C@]43[C@@H]65)C2)C1` [Vinblastine], the “administered dose recovered in the feces after biliary excretion” value in series [3] is on record as “about 10%”. The “oral absorption (in words)” value in series [1] is on record as “Unpredictable absorption”.

Consider `CC[C@]1(O)C[C@H]2CN(CCc3c([nH]c4ccccc34)[C@@](C(=O)OC)(c3cc4c(cc3OC)N(C=O)[C@H]3[C@@](O)(C(=O)OC)[C@H](OC(C)=O)[C@]5(CC)C=CCN6CC[C@]43[C@@H]65)C2)C1` [Vincristine], for which the “oral absorption (in words)” value in series [1] is given as “Unpredictable absorption”.
